Test system: 519858-162-T-J1-PDC complex spheroid viability
Experiment: Anticancer human tumor 519858-162-T-J1-PDC patient-derived colon adenocarcinoma cell line growth inhibition [GQUAD]
Details: for IC50: curve of first compound; for viability, T/C: stronger effect = lower value
Summary of the method: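 Multi-cell-type spheroids of tumor cells with HUVEC and mesenchymal stem cells, treated with drug combinations. Concentrations descend in half-log steps from near clinical Cmax, or from 10 microM where Cmax is unknown; viability read-out.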

[1] = second compound 0.0316 µM, first compound 0.0316 µM
[2] = second compound 0.0316 µM, first compound 0.1 µM
[3] = second compound 0.0316 µM, first compound 0.316 µM
[4] = second compound 0.0316 µM, first compound 1 µM
[5] = second compound 0.0316 µM, first compound 3.16 µM
[6] = second compound 0.0316 µM, first compound 10 µM
[7] = second compound 0.1 µM, first compound 0.0316 µM
[8] = second compound 0.1 µM, first compound 0.1 µM
[9] = second compound 0.1 µM, first compound 0.316 µM
[10] = second compound 0.1 µM, first compound 1 µM
[11] = second compound 0.1 µM, first compound 3.16 µM
[12] = second compound 0.1 µM, first compound 10 µM
[13] = second compound 0.316 µM, first compound 0.0316 µM
[14] = second compound 0.316 µM, first compound 0.1 µM
[15] = second compound 0.316 µM, first compound 0.316 µM
[16] = second compound 0.316 µM, first compound 1 µM
[17] = second compound 0.316 µM, first compound 3.16 µM
[18] = second compound 0.316 µM, first compound 10 µM
[19] = second compound 1 µM, first compound 0.0316 µM
[20] = second compound 1 µM, first compound 0.1 µM
[21] = second compound 1 µM, first compound 0.316 µM
[22] = second compound 1 µM, first compound 1 µM
[23] = second compound 1 µM, first compound 3.16 µM
[24] = second compound 1 µM, first compound 10 µM
[25] = second compound 3.16 µM, first compound 0.0316 µM
[26] = second compound 3.16 µM, first compound 0.1 µM
[27] = second compound 3.16 µM, first compound 0.316 µM
[28] = second compound 3.16 µM, first compound 1 µM
[29] = second compound 3.16 µM, first compound 3.16 µM
[30] = second compound 3.16 µM, first compound 10 µM
[31] = second compound 10 µM, first compound 0.0316 µM
[32] = second compound 10 µM, first compound 0.1 µM
[33] = second compound 10 µM, first compound 0.316 µM
[34] = second compound 10 µM, first compound 1 µM
[35] = second compound 10 µM, first compound 3.16 µM
[36] = second compound 10 µM, first compound 10 µM
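Further: spheroids exposed to compounds for 7 days.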
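Wherever viability, T/C is given: 100% = DMSO vehicle control viability.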

COc1cc(C2c3cc4c(cc3C(OC3OC5COC(C)OC5C(O)C3O)C3COC(=O)C23)OCO4)cc(OC)c1O (stereo unspecified) + CN(C)c1ccc(Nc2c3ccc(NC(=O)CCN4CCCC4)cc3nc3cc(NC(=O)CCN4CCCC4)ccc23)cc1
IC50 (second compound 0.0316 µM): > 10 µM
IC50 (second compound 0.1 µM): > 10 µM
IC50 (second compound 0.316 µM): > 10 µM
IC50 (second compound 1 µM): > 10 µM
IC50 (second compound 3.16 µM): > 10 µM
IC50 (second compound 10 µM): > 10 µM
viability, T/C [1]: 87.2%
viability, T/C [2]: 80.1%
viability, T/C [3]: 83.5%
viability, T/C [4]: 69.2%
viability, T/C [5]: 80.7%
viability, T/C [6]: 103%
viability, T/C [7]: 68.6%
viability, T/C [8]: 81.8%
viability, T/C [9]: 79.6%
viability, T/C [10]: 94.3%
viability, T/C [11]: 60.8%
viability, T/C [12]: 84%
viability, T/C [13]: 93.5%
viability, T/C [14]: 95.8%
viability, T/C [15]: 80.5%
viability, T/C [16]: 61.8%
viability, T/C [17]: 77%
viability, T/C [18]: 62.7%
viability, T/C [19]: 85.4%
viability, T/C [20]: 65.2%
viability, T/C [21]: 64.9%
viability, T/C [22]: 65.9%
viability, T/C [23]: 77%
viability, T/C [24]: 80.3%
viability, T/C [25]: 59.8%
viability, T/C [26]: 76.2%
viability, T/C [27]: 65.3%
viability, T/C [28]: 74.1%
viability, T/C [29]: 101%
viability, T/C [30]: 67.6%
viability, T/C [31]: 55.6%
viability, T/C [32]: 69.2%
viability, T/C [33]: 73.6%
viability, T/C [34]: 64.3%
viability, T/C [35]: 74.8%
viability, T/C [36]: 83.8%

Cc1cccc(N(C)C(=O)C2C(O)CCN2c2nc(C)cc(C(F)(F)F)c2C#N)c1 (stereo unspecified) + CN(C)c1ccc(Nc2c3ccc(NC(=O)CCN4CCCC4)cc3nc3cc(NC(=O)CCN4CCCC4)ccc23)cc1
IC50 (second compound 0.0316 µM): > 10 µM
IC50 (second compound 0.1 µM): > 10 µM
IC50 (second compound 0.316 µM): > 10 µM
IC50 (second compound 1 µM): > 10 µM
IC50 (second compound 3.16 µM): > 10 µM
IC50 (second compound 10 µM): > 10 µM
viability, T/C [1]: 86.1%
viability, T/C [2]: 126%
viability, T/C [3]: 96.4%
viability, T/C [4]: 95.2%
viability, T/C [5]: 91.1%
viability, T/C [6]: 92.9%
viability, T/C [7]: 105%
viability, T/C [8]: 78.6%
viability, T/C [9]: 109%
viability, T/C [10]: 77.2%
viability, T/C [11]: 68.1%
viability, T/C [12]: 83.8%
viability, T/C [13]: 111%
viability, T/C [14]: 87.7%
viability, T/C [15]: 120%
viability, T/C [16]: 61.4%
viability, T/C [17]: 75%
viability, T/C [18]: 85.5%
viability, T/C [19]: 102%
viability, T/C [20]: 84.6%
viability, T/C [21]: 109%
viability, T/C [22]: 73.1%
viability, T/C [23]: 88.8%
viability, T/C [24]: 73.3%
viability, T/C [25]: 63.9%
viability, T/C [26]: 76.2%
viability, T/C [27]: 103%
viability, T/C [28]: 91.8%
viability, T/C [29]: 78.5%
viability, T/C [30]: 62.3%
viability, T/C [31]: 71.2%
viability, T/C [32]: 78.8%
viability, T/C [33]: 57.9%
viability, T/C [34]: 90.7%
viability, T/C [35]: 65.2%
viability, T/C [36]: 88.3%

Cn1ncnc1[C@H]1c2n[nH]c(=O)c3cc(F)cc(c23)N[C@@H]1c1ccc(F)cc1 + CN(C)c1ccc(Nc2c3ccc(NC(=O)CCN4CCCC4)cc3nc3cc(NC(=O)CCN4CCCC4)ccc23)cc1
IC50 (second compound 0.0316 µM): > 0.316 µM
IC50 (second compound 0.1 µM): > 0.316 µM
IC50 (second compound 0.316 µM): > 0.316 µM
IC50 (second compound 1 µM): > 0.316 µM
IC50 (second compound 3.16 µM): > 0.316 µM
IC50 (second compound 10 µM): > 0.316 µM
viability, T/C (second compound 0.0316 µM, first compound 0.000999 µM): 74.5%
viability, T/C (second compound 0.0316 µM, first compound 0.00316 µM): 119%
viability, T/C (second compound 0.0316 µM, first compound 0.00999 µM): 146%
viability, T/C [1]: 66.9%
viability, T/C (second compound 0.0316 µM, first compound 0.0999 µM): 79.6%
viability, T/C [3]: 118%
viability, T/C (second compound 0.1 µM, first compound 0.000999 µM): 96%
viability, T/C (second compound 0.1 µM, first compound 0.00316 µM): 109%
viability, T/C (second compound 0.1 µM, first compound 0.00999 µM): 79%
viability, T/C [7]: 103%
viability, T/C (second compound 0.1 µM, first compound 0.0999 µM): 104%
viability, T/C [9]: 105%
viability, T/C (second compound 0.316 µM, first compound 0.000999 µM): 94.4%
viability, T/C (second compound 0.316 µM, first compound 0.00316 µM): 139%
viability, T/C (second compound 0.316 µM, first compound 0.00999 µM): 99.1%
viability, T/C [13]: 84.6%
viability, T/C (second compound 0.316 µM, first compound 0.0999 µM): 83%
viability, T/C [15]: 109%
viability, T/C (second compound 1 µM, first compound 0.000999 µM): 75.3%
viability, T/C (second compound 1 µM, first compound 0.00316 µM): 68.4%
viability, T/C (second compound 1 µM, first compound 0.00999 µM): 82.2%
viability, T/C [19]: 63.5%
viability, T/C (second compound 1 µM, first compound 0.0999 µM): 88.9%
viability, T/C [21]: 119%
viability, T/C (second compound 3.16 µM, first compound 0.000999 µM): 104%
viability, T/C (second compound 3.16 µM, first compound 0.00316 µM): 97.8%
viability, T/C (second compound 3.16 µM, first compound 0.00999 µM): 78.6%
viability, T/C [25]: 63.2%
viability, T/C (second compound 3.16 µM, first compound 0.0999 µM): 54.8%
viability, T/C [27]: 91.9%
viability, T/C (second compound 10 µM, first compound 0.000999 µM): 89.9%
viability, T/C (second compound 10 µM, first compound 0.00316 µM): 57.5%
viability, T/C (second compound 10 µM, first compound 0.00999 µM): 82.4%
viability, T/C [31]: 79.6%
viability, T/C (second compound 10 µM, first compound 0.0999 µM): 67.5%
viability, T/C [33]: 65.7%

Source: PubChem BioAssay AID2060507 (Molecular Pharmacology Branch, DTP, NCI, 2025)
